Converted amounts (≈) assume the structure as drawn. The source made the active and inactive calls. The calls are words filed in the database; no cut-off is given here.
Legend:
[1] = Solubility of compound in PBS; format: physicochemical
[2] = Induction of mitophagy in human HeLa MKYP cells treated with FCCP/oligomycin for 6 hrs and measured by FACS analysis; format: functional, cell-based
HeLa [3] = test: Cytotoxicity against human HeLa MKYP cells assessed as percentage of DAPI-positive cells at 50 uM and measured by DAPI staining method; format: toxicity, cell-based
HeLa [4] = test: Cytotoxicity against human HeLa MKYP cells assessed as cell death at 25 uM treated with FCCP/oliogmycin and measured DAPI staining method assay relative to control; format: toxicity, cell-based
HeLa [5] = test: Cytotoxicity against human HeLa MKYP cells assessed as cell death at 25 uM and measured DAPI staining method assay relative to control; format: toxicity, cell-based
[6] = Ratio of highest compound concentration with no observable mitotoxicity to EC50 of compound to induce mitophagy in human HeLa MKYP cells; format: functional
[7] = target: Serine/threonine-protein kinase PINK1, mitochondrial (Homo sapiens) (UniProt Q9BXM7); test: Activation of PINK1 in human HeLa cells stably expressing YFP parkin assessed as reduction in dOTC protein accumulation and measured by ornithine carbamoyltransferase (DOTC) assay relative to control; format: cell-based; conditions: filed as activator
Chain of Serine/threonine-protein kinase PINK1, mitochondrial (Homo sapiens) (Q9BXM7 whole entry, the tested form may be a part): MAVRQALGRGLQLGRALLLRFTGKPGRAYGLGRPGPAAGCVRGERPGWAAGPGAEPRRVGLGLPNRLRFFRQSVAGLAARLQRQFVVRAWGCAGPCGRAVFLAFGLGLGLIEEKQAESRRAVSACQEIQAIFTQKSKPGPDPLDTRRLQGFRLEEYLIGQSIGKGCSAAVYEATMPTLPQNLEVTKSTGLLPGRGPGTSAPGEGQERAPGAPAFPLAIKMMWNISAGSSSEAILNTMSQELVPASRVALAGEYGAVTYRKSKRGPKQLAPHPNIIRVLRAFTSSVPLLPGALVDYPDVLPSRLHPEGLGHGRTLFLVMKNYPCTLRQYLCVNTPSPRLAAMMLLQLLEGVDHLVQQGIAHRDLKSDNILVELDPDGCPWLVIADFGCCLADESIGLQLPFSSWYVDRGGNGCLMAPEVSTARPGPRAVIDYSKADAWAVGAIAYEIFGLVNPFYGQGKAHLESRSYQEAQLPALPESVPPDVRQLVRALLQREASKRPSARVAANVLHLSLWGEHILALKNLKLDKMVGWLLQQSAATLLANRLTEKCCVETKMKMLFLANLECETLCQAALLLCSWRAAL

[8] = target: Serine/threonine-protein kinase PINK1, mitochondrial (Homo sapiens) (UniProt Q9BXM7); test: Activation of PINK1 in human HeLa MKYP cells expressing PINK1 treated with FCCP/oilgomycin assessed as increase in pS65 Ub and measured by ELISA assay; format: cell-based; conditions: filed as activator
[9] = target: Serine/threonine-protein kinase PINK1, mitochondrial (Homo sapiens) (UniProt Q9BXM7); test: Activation of PINK1 in human HeLa MKYP PINK1-knock out cells treated with FCCP/oilgomycin assessed as increase in pS65 Ub and measured by ELISA assay; format: cell-based
[10] = target: Serine/threonine-protein kinase PINK1, mitochondrial (Homo sapiens) (UniProt Q9BXM7); test: Activation of PINK1 in human HeLa MKYP cells expressing PINK1 treated with FCCP/oilgomycin assessed as increase in parkin recruitment and measured by ELISA assay; format: cell-based; conditions: filed as activator
[11] = target: Serine/threonine-protein kinase PINK1, mitochondrial (Homo sapiens) (UniProt Q9BXM7); test: Activation of PINK1 in human HeLa MKYP PINK1-knock out cells treated with FCCP/oilgomycin assessed as increase in parkin recruitment and measured by ELISA assay; format: cell-based
HeLa [12] = test: Induction of mitophagy in human HeLa MKYP cells expressing wild-type PNIK1 treated with FCCP/oligomycin for 6 hrs and measured by FACS analysis; format: functional, cell-based
HeLa [13] = test: Induction of mitophagy in human HeLa MKYP PINK1-knockout cells treated with FCCP/oligomycin for 6 hrs and measured by FACS analysis; format: functional, cell-based
[14] = target: Serine/threonine-protein kinase PINK1, mitochondrial (Homo sapiens) (UniProt Q9BXM7); test: Activation of PINK1 in human iPSC derived neurons at 3.1 to 6.2 uM assessed as reduction in pS129 alpha-synuclein; format: cell-based; conditions: Neuron, filed as activator, dose 3.1-6.2 µM
[15] = target: Serine/threonine-protein kinase PINK1, mitochondrial (Homo sapiens) (UniProt Q9BXM7); test: Activation of PINK1 in human HeLa MKYP PINK1-knock out cells at 3.125 to 6.25 uM assessed as reduction in pS129 alpha-synuclein; format: cell-based; conditions: dose 3.125-6.25 µM
Mus musculus [16] = test: Protection against preformed alpha-synuclein amyloid fibril (PFF) in C57BL/6 mouse model assessed as decrease in C-terminal truncation of alpha-synuclein in ipsilateral striatum at 5 to 50 mg/kg, po administered daily for 28 days; format: functional, organism-based; conditions: dose 5-50 mg/kg, time 28.0 day
Mus musculus [17] = test: Protection against preformed alpha-synuclein amyloid fibril (PFF) in C57BL/6 mouse model assessed as decrease in pS129 monomer of alpha-synuclein in ipsilateral striatum at 5 to 50 mg/kg, po administered daily for 28 days; format: functional, organism-based; conditions: dose 5-50 mg/kg, time 28.0 day
Mus musculus [18] = test: Protection against preformed alpha-synuclein amyloid fibril (PFF) in C57BL/6 mouse model assessed as decrease in total monomer of alpha-synuclein in ipsilateral striatum at 5 to 50 mg/kg, po administered daily for 28 days; format: functional, organism-based; conditions: dose 5-50 mg/kg, time 28.0 day
Mus musculus [19] = test: Protection against preformed alpha-synuclein amyloid fibril (PFF) in C57BL/6 mouse model assessed as decrease in all species of alpha-synuclein in ipsilateral striatum at 5 to 50 mg/kg, po administered daily for 28 days; format: functional, organism-based; conditions: dose 5-50 mg/kg, time 28.0 day
Mus musculus [20] = test: Protection against preformed alpha-synuclein amyloid fibril (PFF) in C57BL/6 mouse model assessed as decrease in all species of alpha-synuclein in contralateral striatum at 5 to 50 mg/kg, po administered daily for 28 days; format: functional, organism-based; conditions: dose 5-50 mg/kg, time 28.0 day
Mus musculus [21] = test: Protection against preformed alpha-synuclein amyloid fibril (PFF) in C57BL/6 mouse model assessed as decrease in all species of alpha-synuclein in ventral midbrain at 5 to 50 mg/kg, po administered daily for 28 days; format: functional, organism-based; conditions: dose 5-50 mg/kg, time 28.0 day
Mus musculus [22] = test: Protection against cisplatin-induced mitochondrial dysfunction in mouse assessed as decrease in GDF15 expression at 20 to 50 mg/kg, po administered daily; format: functional, organism-based; conditions: dose 20-50 mg/kg
[23] = Induction of mitophagy in human HeLa MKYP cells treated at 6.3 uM with FCCP/oligomycin for 6 hrs and measured by FACS analysis relative to control; format: functional

SMILES | solubility [1] [µM] | EC50 [2] [nM] | Activity (HeLa [3]) [%] | Activity (HeLa [4]) [%] | Activity (HeLa [5]) [%] | Ratio [6] | Activity [23] [%] | further results
C[C@H]1CCc2ccccc2[C@@H]1Nc1ncnc2[nH]c(C(F)(F)F)cc12 | 1 (≈ 0.346 µg/mL) | 600 | 13.3 | 13.32 | 3.79 | 8.69 | – | –
O[C@H]1Cc2ccccc2[C@@H]1Nc1ncnc2[nH]c(C(F)(F)F)cc12 | – | 18500 | 14.4 | 14.4 | 2.51 | 1.35 | – | –
Fc1ccc2c(c1)CCCC2Nc1ncnc2[nH]c(C(F)(F)F)cc12 (stereo not drawn) | 1 (≈ 0.35 µg/mL) | 1060 | 30.1 | 30.1 | 3.27 | – | – | –
OC[C@@H]1CCc2ccccc2[C@H]1Nc1ncnc2[nH]c(C(F)(F)F)cc12 | – | 1100 | 59.5 | 59.535 | 27 | 7.25 | – | –
CO[C@H]1CCc2ccccc2[C@@H]1Nc1ncnc2[nH]c(C(F)(F)F)cc12 | 1.31 (≈ 0.475 µg/mL) | 1480 | 7.7 | 7.67 | 5.15 | – | – | –
O[C@@H]1Cc2ccccc2[C@H]1Nc1ncnc2[nH]c(C(F)(F)F)cc12 | – | 15100 | 7.6 | 7.59 | 2.35 | 1.66 | – | –
CN1CC[C@H](Nc2ncnc3[nH]c(C(F)(F)F)cc23)c2ccccc21 | – | 1330 | 59 | 16 | 2.51 | 30 | – | –
CC[C@@H]1CCc2ccccc2[C@@H]1Nc1ncnc2[nH]c(C(F)(F)F)cc12 | – | 1800 | 8.7 | 8.735 | 5.04 | 13.8 | – | –
FC(F)(F)c1cc2c(N[C@@H]3CCOc4ccccc43)ncnc2[nH]1 | – | 6300 | 21.1 | 21 | 3.04 | 8.85 | – | –
C[C@@H]1CCc2ccccc2[C@H]1Nc1ncnc2[nH]c(C(F)(F)F)cc12 | 1 (≈ 0.346 µg/mL) | 4180 | 23.8 | 23.8 | 17.9 | – | – | –
FC(F)(F)c1cc2c(NC3CCCc4ccccc43)ncnc2[nH]1 (stereo in doubt) | – | – | – | – | – | – | – | Activity [7]: Active; Activity [8]: Active; Activity [9]: inactive; Activity [10]: Active; Activity [11]: inactive; Activity (HeLa [12]): Active; Activity (HeLa [13]): inactive; Activity [14]: Active; Activity [15]: inactive; Activity (Mus musculus [16]): Active; Activity (Mus musculus [17]): Active; Activity (Mus musculus [18]): Active; Activity (Mus musculus [19]): Active; Activity (Mus musculus [20]): Active; Activity (Mus musculus [21]): Active; Activity (Mus musculus [22]): Active
c1ccc2c(c1)CCC[C@H]2Nc1ncnc2[nH]c(C3CC3)cc12 | 1 (≈ 0.304 µg/mL) | 470 | 16.6 | 14.9 | 9.32 | 53.2 | – | –
OC1CCc2ccccc2C1Nc1ncnc2[nH]c(C(F)(F)F)cc12 (stereo not drawn) | 1 (≈ 0.348 µg/mL) | > 50000 | 12.8 | 12.8 | 3.79 | – | – | –
N#Cc1cccc2c1CCCC2Nc1ncnc2[nH]c(C(F)(F)F)cc12 (stereo not drawn) | 1 (≈ 0.357 µg/mL) | 2980 | 71.2 | 71.2 | 57.1 | 8.39 | – | –
C[C@H]1CCc2ccccc2[C@H]1Nc1ncnc2[nH]c(C(F)(F)F)cc12 | – | 1100 | 12 | 12 | 6.45 | 7.74 | – | –
CCCCNc1ncnc2[nH]c(CC)cc12 | – | – | 93.4 | – | – | – | 14 | –
CCCCNc1ncnc2[nH]c(-c3ccnn3C)cc12 | – | – | 94.6 | – | – | – | 15 | –
FC(F)(F)c1cc2c(NC3(c4ccccc4)CC3)ncnc2[nH]1 | – | – | 80.5 | – | – | – | 20.8 | –
COc1ccc2c(c1)CCCC2Nc1ncnc2[nH]c(C(F)(F)F)cc12 (stereo not drawn) | – | – | 95.5 | – | – | – | 29.8 | –
CCCCNc1ncnc2[nH]c(-c3ccccc3)cc12 | – | – | 90 | – | – | – | 52 | –
CCCCNc1ncnc2[nH]c(CC(F)(F)F)cc12 | – | – | 24.8 | – | – | – | 13.9 | –
CO[C@@H]1CCc2ccccc2[C@H]1Nc1ncnc2[nH]c(C(F)(F)F)cc12 | 1 (≈ 0.362 µg/mL) | 22100 | 18.4 | 18.4 | 15.3 | – | – | –
CC(Nc1ncnc2[nH]c(C(F)(F)F)cc12)c1ccccc1 (stereo not drawn) | – | – | 2.4 | – | – | – | 88.4 | –
